Structures are written as SMILES. Values joined by “and” are separate entries in the source; they are usually repeats but may differ in a detail not shown here. Equal entries are not always repeated. Toxic doses and inconclusive results are not listed.

In PubChem BioAssay AID200 (DTP/NCI, 2004) one finds T/C data, which are given here for 18 compounds.

The assay has as its system B6C3F1 mice, B16 melanoma ip, median survival T/C. Put plainly: NCI In Vivo Anticancer Drug Screen. Data for tumor model B16 Melanoma (intraperitoneal) in B6C3F1 mice. To be noted: endpoint: median survival time, schedule: Q01DX009 (ip), higher = longer survival. On the procedure: The antitumor activity of compounds was measured in mice bearing transplantable tumors. Survival or tumor size were measured and the results are expressed as the measurement made in the treated group (T) divided by the measurement made in the vehicle treated control group (C). The tumor model used in this assay is B16 Melanoma (intraperitoneal) in B6C3F1 mice

Setting [1] is: dose: 1.25 mg/kg/injection, vehicle: saline.
The mark [2] stands for this setting: dose: 2.5 mg/kg/injection, vehicle: saline.
Where [3] appears, read: dose: 50.0 mg/kg/injection, vehicle: saline with Tween-80.
Where [4] appears, read: dose: 100.0 mg/kg/injection, vehicle: saline with Tween-80.
[5] abbreviates: dose: 200.0 mg/kg/injection, vehicle: saline with Tween-80.
[6] abbreviates: dose: 200.0 mg/kg/injection, vehicle: saline.
Where [7] appears, read: dose: 12.5 mg/kg/injection, vehicle: saline.
Setting [8] is: dose: 25.0 mg/kg/injection, vehicle: saline.
[9] abbreviates: dose: 50.0 mg/kg/injection, vehicle: saline.
[10] abbreviates: dose: 100.0 mg/kg/injection, vehicle: saline.
Where [11] appears, read: dose: 12.5 mg/kg/injection, vehicle: saline with Tween-80.
Setting [12] is: dose: 25.0 mg/kg/injection, vehicle: saline with Tween-80.
Where [13] appears, read: dose: 400.0 mg/kg/injection, vehicle: saline with Tween-80.

Turning to `COc1ccc([C@@]23Oc4cc(OC)cc(OC)c4[C@]2(O)[C@H](O)[C@H](C(=O)N(C)C)[C@H]3c2ccccc2)cc1`, the T/C (dose: 0.25 mg/kg/injection, vehicle: Klucel (hydroxypropylcellulose) (HPC)) was 97 % of control; the T/C (dose: 0.5 mg/kg/injection, vehicle: Klucel (hydroxypropylcellulose) (HPC)) was 119 % of control and 91 % of control and 106 % of control; the T/C (dose: 1.0 mg/kg/injection, vehicle: Klucel (hydroxypropylcellulose) (HPC)) is 112 % of control and 117 % of control; the T/C (dose: 2.0 mg/kg/injection, vehicle: Klucel (hydroxypropylcellulose) (HPC)) was 103 % of control and 104 % of control and 106 % of control.

As to `O=C1CN(CCN2CC(=O)N(CN3CCOCC3)C(=O)C2)CC(=O)N1CN1CCOCC1`, the T/C was 107 % of control (dose: 12.5 mg/kg/injection, vehicle: water); 114 % of control and 118 % of control (2×) (dose: 25.0 mg/kg/injection, vehicle: water); 150 % of control and 154 % of control (dose: 50.0 mg/kg/injection, vehicle: water).

As to `COCC12CCC(OC)C34C5CC6(O)C(OC)CC(OC(C)=O)(C5C6OC(=O)c5ccccc5)C(C(OC)C13)C4N(C)C2` (centres undefined), the T/C is 92 % of control (dose: 15.0 micrograms/kg/injection, vehicle: Klucel (hydroxypropylcellulose) (HPC)); 108 % of control (dose: 30.0 micrograms/kg/injection, vehicle: Klucel (hydroxypropylcellulose) (HPC)); 96 % of control (dose: 60.0 micrograms/kg/injection, vehicle: Klucel (hydroxypropylcellulose) (HPC)); 99 % of control (dose: 120.0 micrograms/kg/injection, vehicle: Klucel (hydroxypropylcellulose) (HPC)).

For the compound `C/C(=N\NC(=O)c1ccncc1)c1ccc(Cl)cc1`, the T/C runs as follows: under setting [1], 96 % of control; under setting [2], 98 % of control; (dose: 5.0 mg/kg/injection, vehicle: saline) 107 % of control.

Consider `O=C1c2ccccc2CCC1Br` (centres undefined), for which the T/C (dose: 1.5 mg/kg/injection, vehicle: DMSO) was 87 % of control; the T/C (dose: 3.0 mg/kg/injection, vehicle: DMSO) was 86 % of control and 87 % of control; the T/C (dose: 6.0 mg/kg/injection, vehicle: DMSO) is 91 % of control; the T/C (dose: 12.0 mg/kg/injection, vehicle: DMSO) was 94 % of control.

On to `CC(SC(C)C(=O)N/N=C/c1ccc(C#N)cc1)C(=O)N/N=C\c1ccc(C#N)cc1` (centres undefined), for which the T/C runs as follows: under setting [3], 92 % of control; under setting [4], 88 % of control; under setting [5], 87 % of control; under setting [6], 88 % of control.

In the case of `CC(=O)OCC1OC(n2ccc(N)nc2=O)C(OC(C)=O)C1OC(C)=O` (centres undefined), the T/C reads like this: under setting [7], 106 % of control; under setting [8], 104 % of control; under setting [9], 109 % of control; under setting [10], 108 % of control; under setting [6], 120 % of control.

With `CC(C)NCC(O)COc1ccc(O)c(O)c1` (centres undefined), the T/C reads like this: under setting [8], 100 % of control and 103 % of control; under setting [9], 113 % of control and 106 % of control; under setting [10], 109 % of control and 116 % of control.

On to `O=C1C=C(N2CC2)C(=O)C(N2CC2)=C1N1CC1`, for which the T/C is 111 % of control (dose: 6.25 micrograms/kg/injection, vehicle: saline); 95 % of control (dose: 12.5 micrograms/kg/injection, vehicle: saline); 113 % of control (dose: 25.0 micrograms/kg/injection, vehicle: saline); 165 % of control (dose: 50.0 micrograms/kg/injection, vehicle: saline); 157 % of control (dose: 100.0 micrograms/kg/injection, vehicle: saline).

As to `CCC/C(=N/NC(N)=O)C(OC)OC`, the T/C is 110 % of control (dose: 37.5 mg/kg/injection, vehicle: saline); 98 % of control (dose: 75.0 mg/kg/injection, vehicle: saline); 106 % of control (dose: 150.0 mg/kg/injection, vehicle: saline).

Regarding `CCC(NC(N)=O)C(CC)NC(N)=O` (centres undefined), the T/C by setting is: under setting [11], 99 % of control; under setting [12], 96 % of control; under setting [3], 89 % of control.

`CC(C)C(NC(=O)OC(C)(C)C)C(=O)O` (centres undefined): the T/C (dose: 100.0 mg/kg/injection, vehicle: Klucel (hydroxypropylcellulose) (HPC)) is 90 % of control.

In the case of `NC(=O)CC(N)C(=O)O` (centres undefined), the T/C is, setting by setting: under setting [3], 108 % of control; under setting [4], 100 % of control; under setting [5], 100 % of control; under setting [13], 105 % of control; (dose: 800.0 mg/kg/injection, vehicle: saline with Tween-80) 120 % of control; (dose: 1600.0 mg/kg/injection, vehicle: saline with Tween-80) 118 % of control.

As for `COC1C(/C=C/C(C)=O)OC2OC(C)(C)OC21` (centres undefined), the T/C is, setting by setting: (dose: 6.25 mg/kg/injection, vehicle: saline) 92 % of control and 94 % of control and 100 % of control; under setting [7], 93 % of control and 97 % of control and 98 % of control; under setting [8], 91 % of control and 96 % of control and 101 % of control; under setting [9], 108 % of control and 87 % of control and 101 % of control; under setting [10], 93 % of control and 103 % of control and 104 % of control; under setting [6], 112 % of control.

For `Cc1cc(=NO)cc(C)n1O`, the T/C is 109 % of control and 94 % of control (dose: 25.0 mg/kg/injection, vehicle: distilled water + alcohol); 98 % of control and 105 % of control (dose: 50.0 mg/kg/injection, vehicle: distilled water + alcohol); 87 % of control and 92 % of control (dose: 100.0 mg/kg/injection, vehicle: distilled water + alcohol); 92 % of control (dose: 200.0 mg/kg/injection, vehicle: distilled water + alcohol); 86 % of control and 89 % of control (dose: 400.0 mg/kg/injection, vehicle: distilled water + alcohol).

Consider `CCN1/C(=C/C=C/C=C\C=C\c2sc3ccc4ccccc4c3[n+]2CC)Sc2ccc3ccccc3c21`, for which the T/C runs as follows: (dose: 1.25 mg/kg/injection, vehicle: saline with Tween-80) 101 % of control; under setting [1], 124 % of control; (dose: 2.5 mg/kg/injection, vehicle: saline with Tween-80) 94 % of control; under setting [2], 123 % of control.

`Nc1nc(N)c2c(ccc3c2ccn3Cc2cccc([N+](=O)[O-])c2)n1`: the T/C is, setting by setting: (dose: 0.19 mg/kg/injection, vehicle: saline with Tween-80) 107 % of control; (dose: 0.2 mg/kg/injection, vehicle: saline with Tween-80) 102 % of control; (dose: 0.38 mg/kg/injection, vehicle: saline with Tween-80) 98 % of control; (dose: 0.4 mg/kg/injection, vehicle: saline with Tween-80) 101 % of control; (dose: 0.75 mg/kg/injection, vehicle: saline with Tween-80) 116 % of control; (dose: 0.78 mg/kg/injection, vehicle: saline with Tween-80) 103 % of control. Further, the T/C is, setting by setting: (dose: 1.5 mg/kg/injection, vehicle: saline with Tween-80) 93 % of control and 100 % of control; (dose: 1.56 mg/kg/injection, vehicle: saline with Tween-80) 99 % of control; (dose: 3.0 mg/kg/injection, vehicle: saline with Tween-80) 112 % of control and 103 % of control; (dose: 6.0 mg/kg/injection, vehicle: saline with Tween-80) 108 % of control and 116 % of control.

On to `O=S(=O)(c1ccccc1)N1CN2CCN(C2)C1`, for which the T/C under setting [11] is 96 % of control; the T/C under setting [12] is 94 % of control; the T/C under setting [3] is 108 % of control; the T/C under setting [4] is 112 % of control; the T/C under setting [5] was 119 % of control; the T/C under setting [13] was 122 % of control.
